Results reported in PMC12329534, “Sal is a proteobacterial bile acid aldolase that repurposes key thiolase catalytic residues for retroaldol cleavage of C5 steroid side chains” (The Journal of Biological Chemistry, 2025).

Experiments:
[1] = molecular target: T1, CtShy–CtSal complex (CtSal steroid aldolase activity) (Comamonas testosteroni, UniProt B7X4S8); experiment: CtSad-coupled NADH formation at […] nm; format: biochemical; conditions: apparent; 1 mM NAD+ and 7 nM CtSad for coupling, 100 mM HEPES pH 7.5, 25 °C
T1 construct: gene CtesDRAFT_PD3654; full-length CtShy–CtSal complex co-expressed in E. coli BL21 LOBSTR, His-tag purified; heterotetramer, 160 kDa by SEC (CtShy 35 kDa, CtSal 46 kDa); with Steroid hydratase Shy (DUF35/OB-fold and MaoC domain-containing protein)
T1 sequence (B7X4S8 1-404): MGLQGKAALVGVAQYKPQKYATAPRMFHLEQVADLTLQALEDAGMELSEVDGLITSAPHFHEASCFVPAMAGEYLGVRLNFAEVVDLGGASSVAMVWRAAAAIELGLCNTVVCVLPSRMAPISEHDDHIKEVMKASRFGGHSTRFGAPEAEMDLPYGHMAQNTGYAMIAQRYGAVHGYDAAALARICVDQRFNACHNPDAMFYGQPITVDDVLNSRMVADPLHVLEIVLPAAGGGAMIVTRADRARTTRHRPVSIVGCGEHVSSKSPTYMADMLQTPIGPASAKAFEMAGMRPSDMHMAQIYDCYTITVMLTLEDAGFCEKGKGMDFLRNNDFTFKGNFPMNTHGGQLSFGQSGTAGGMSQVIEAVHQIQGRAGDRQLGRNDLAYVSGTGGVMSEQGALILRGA
T1 sequence (B7X4S7 1-312 partner): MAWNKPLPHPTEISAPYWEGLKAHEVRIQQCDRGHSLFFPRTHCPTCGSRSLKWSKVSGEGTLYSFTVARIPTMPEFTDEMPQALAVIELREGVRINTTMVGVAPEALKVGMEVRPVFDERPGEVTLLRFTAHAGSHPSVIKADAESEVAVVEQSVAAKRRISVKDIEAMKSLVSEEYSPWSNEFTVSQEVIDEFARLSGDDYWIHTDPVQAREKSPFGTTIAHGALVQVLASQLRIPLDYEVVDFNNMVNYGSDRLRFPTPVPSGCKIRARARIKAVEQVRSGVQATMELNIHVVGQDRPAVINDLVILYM

[2] = molecular target: T2, 17-β-hydroxysteroid dehydrogenase (Hsd4A) (Rhodococcus jostii, UniProt Q0S7K5); experiment: LC-MS/MS of product; NADH formation at […] nm; format: biochemical; conditions: 1 mM NAD+; substrate made in situ from cholyl-enoyl-CoA by CtShy–CtSal; 100 mM HEPES pH 7.5, 25 °C or 50 mM ammonium acetate pH 7.4
T2 construct: isolated enzyme; construct not described in main text
T2 sequence (Q0S7K5 1-305): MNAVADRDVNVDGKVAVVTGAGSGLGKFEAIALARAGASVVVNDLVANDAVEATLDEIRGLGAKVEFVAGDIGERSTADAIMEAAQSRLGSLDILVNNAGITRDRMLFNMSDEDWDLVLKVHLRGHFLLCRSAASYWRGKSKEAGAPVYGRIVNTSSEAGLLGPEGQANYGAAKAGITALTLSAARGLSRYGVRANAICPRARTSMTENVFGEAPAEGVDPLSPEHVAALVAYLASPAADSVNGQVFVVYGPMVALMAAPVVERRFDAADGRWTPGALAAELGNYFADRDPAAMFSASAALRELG

[3] = tested on: T3, C[C@H](C(O)CC(=O)SCCNC(=O)CCNC(=O)[C@H](O)C(C)(C)COP(=O)(O)OP(=O)(O)OC[C@H]1O[C@@H](n2cnc3c(N)ncnc32)[C@H](O)[C@@H]1OP(=O)(O)O)[C@H]1CC[C@H]2[C@@H]3[C@H](O)C[C@@H]4C[C@H](O)CC[C@]4(C)[C@H]3C[C@H](O)[C@]12C; experiment: purified protein; format: biochemical, Comamonas testosteroni; conditions: apparent, 1 mM NAD+ and 7 nM CtSad for coupling, 100 mM HEPES pH 7.5, 25 °C
T3 construct: full-length CtShy–CtSal complex co-expressed in E. coli BL21 LOBSTR, His-tag purified; heterotetramer, 160 kDa by SEC (CtShy 35 kDa, CtSal 46 kDa); with Steroid hydratase Shy (DUF35/OB-fold and MaoC domain-containing protein)

[4] = molecular target: T4, CtShy–CtSal complex (CtShy steroid hydratase activity) (Comamonas testosteroni, UniProt B7X4S7); experiment: LC-MS/MS of products; Hsd4A-coupled NADH end point; format: biochemical; conditions: 50 mM ammonium acetate pH 7.4 (LC-MS) or 100 mM HEPES pH 7.5, 25 °C; NAD+ and excess Hsd4A
T4 construct: gene CtesDRAFT_PD3653; full-length CtShy–CtSal complex from E. coli BL21 LOBSTR, His-tag purified; MaoC domain of CtShy is the hydratase domain; with Steroid aldolase Sal (thiolase-like protein)
T4 sequence (B7X4S7 1-312): T1 sequence (B7X4S7 1-312 partner)

## C[C@H](C(O)CC(=O)SCCNC(=O)CCNC(=O)[C@H](O)C(C)(C)COP(=O)(O)OP(=O)(O)OC[C@H]1O[C@@H](n2cnc3c(N)ncnc32)[C@H](O)[C@@H]1OP(=O)(O)O)[C@H]1CC[C@H]2[C@@H]3[C@H](O)C[C@@H]4C[C@H](O)CC[C@]4(C)[C@H]3C[C@H](O)[C@]12C (stereo partly drawn) [Cholyl-22-OH-CoA]
[1]
  Km: 8.12 ± 0.477 µM
[2]
  LC-MS/MS of product; NADH formation at 340 nm: Hsd4A effectively sequestered the CtShy product to form cholyl-22-oxo-CoA

## CtShy–CtSal complex (CtSal steroid aldolase activity) (Comamonas testosteroni KF-1; R216A)
[3]
  Km: 41.4 ± 1.29 µM
  kcat: 11.6 ± 0.15 s⁻¹
  kcat/Km: 281000 ± 876 M⁻¹ s⁻¹

## C[C@H](/C=C/C(=O)SCCNC(=O)CCNC(=O)[C@H](O)C(C)(C)COP(=O)(O)OP(=O)(O)OC[C@H]1O[C@@H](n2cnc3c(N)ncnc32)[C@H](O)[C@@H]1OP(=O)(O)O)[C@H]1CC[C@H]2[C@@H]3[C@H](O)C[C@@H]4C[C@H](O)CC[C@]4(C)[C@H]3C[C@H](O)[C@]12C [cholyl-enoyl-CoA]
[4]
  LC-MS/MS of products; Hsd4A-coupled NADH end point: Hsd4A effectively sequestered the CtShy product to form cholyl-22-oxo-CoA
